Laboratory results as given in patent US20240383911A1, “AZAINDAZOLE MACROCYCLE COMPOUNDS AND USES THEREOF” (BROADENBIO CO., LTD, priority 2021, published 2024).

Experiments:
Human Jurkat-E6-1 cells = assay: Detection of IL-2 production by Jurkat cells using ELISA; type: cell-based; settings: anti-CD3/anti-CD28 stimulation 24 hours, tested compound 1.0 μM, read-out: Percentage of the amount of IL-2 secreted by compound treated vs DMSO-treated cells
Method in brief: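 Jurkat E6-1 cells were pre-incubated with compound for 30 min at 37 °C, then stimulated 24 h on plate-bound anti-CD3 plus soluble anti-CD28. Secreted IL-2 in supernatant was measured by sandwich ELISA (450 nm) against a standard curve and expressed as % of DMSO-treated cells.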

KDR = KDR (Homo sapiens, UniProt P35968); assay: KDR kinase activity inhibition test (HTRF); type: biochemical; settings: read-out: IC50, inhibitory effects on KDR kinase activity
KDR, sequence (P35968 20-1356): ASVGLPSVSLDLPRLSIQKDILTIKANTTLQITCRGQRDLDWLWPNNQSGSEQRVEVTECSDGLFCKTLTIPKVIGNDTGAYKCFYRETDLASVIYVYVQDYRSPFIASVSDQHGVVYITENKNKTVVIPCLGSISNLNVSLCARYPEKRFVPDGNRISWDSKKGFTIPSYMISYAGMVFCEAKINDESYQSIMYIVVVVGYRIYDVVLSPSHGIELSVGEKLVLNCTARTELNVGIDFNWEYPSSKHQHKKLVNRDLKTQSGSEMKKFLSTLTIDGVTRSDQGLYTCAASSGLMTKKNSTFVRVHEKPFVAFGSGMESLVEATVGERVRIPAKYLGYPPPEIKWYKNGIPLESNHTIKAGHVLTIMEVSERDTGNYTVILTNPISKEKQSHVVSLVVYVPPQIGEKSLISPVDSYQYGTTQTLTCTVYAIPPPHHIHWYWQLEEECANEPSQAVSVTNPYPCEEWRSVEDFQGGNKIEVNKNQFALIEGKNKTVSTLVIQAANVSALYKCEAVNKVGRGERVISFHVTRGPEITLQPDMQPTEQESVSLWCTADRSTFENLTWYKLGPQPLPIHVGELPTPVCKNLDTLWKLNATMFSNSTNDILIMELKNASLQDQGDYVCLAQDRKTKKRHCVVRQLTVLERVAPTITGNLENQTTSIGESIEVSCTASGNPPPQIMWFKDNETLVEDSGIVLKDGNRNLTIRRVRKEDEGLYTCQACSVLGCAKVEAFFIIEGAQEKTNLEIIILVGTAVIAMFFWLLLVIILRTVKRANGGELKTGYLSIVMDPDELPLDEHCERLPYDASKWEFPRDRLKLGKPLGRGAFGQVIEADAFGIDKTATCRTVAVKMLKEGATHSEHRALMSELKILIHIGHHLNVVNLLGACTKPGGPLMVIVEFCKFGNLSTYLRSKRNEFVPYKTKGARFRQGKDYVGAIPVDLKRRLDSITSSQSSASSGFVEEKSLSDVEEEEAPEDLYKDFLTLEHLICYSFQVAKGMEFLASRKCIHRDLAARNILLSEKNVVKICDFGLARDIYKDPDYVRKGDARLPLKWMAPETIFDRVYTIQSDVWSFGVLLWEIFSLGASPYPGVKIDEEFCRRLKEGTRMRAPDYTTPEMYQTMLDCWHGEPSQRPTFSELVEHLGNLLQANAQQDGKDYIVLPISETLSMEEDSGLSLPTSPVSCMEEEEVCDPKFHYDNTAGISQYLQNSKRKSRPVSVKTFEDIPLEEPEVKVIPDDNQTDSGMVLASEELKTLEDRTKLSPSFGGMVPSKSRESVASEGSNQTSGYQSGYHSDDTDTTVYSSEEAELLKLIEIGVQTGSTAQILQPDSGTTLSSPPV
Description: Tested compounds: compounds prepared in the Examples of this invention.
Prepare compound stock solution: dissolve the test compound in 100% DMSO to make a 10 mM stock solution. Dilute the stock solution of the test compound by 5 times with 100% DMSO, make a 4-fold equal dilution in a 96-well dilution plate, add 1 μL of the compound to 39 μL of kinase reaction buffer (1×kinase buffer, 5 mM MgCl2, 1 mM DTT), and shake on a microplate shaker for 20 minutes. 4×Positive control (4 μL of positive compound solution of the starting concentration, add 196 μL of kinase buffer) and 4×negative control (4 μL of 100% DMSO, add 196 μL of kinase buffer).
(1) Use 1×kinase reaction buffer to prepare 2.5×KDR kinase solution (250 μM), transfer 2 μL of the kinase solution to the 384 reaction plate, and add 1 μL of the test compound solution of gradient concentration to the 384 reaction plate (Greiner, Cat #784075), centrifuge for 1 minute (1000 rpm), and incubate at 25° C. for 10 minutes.
(2) Use 1×kinase reaction buffer to prepare 2.5×TK-substrate-biotin (2.5 μM) and 2.5×ATP (2.5 μM), mix well, and add 2 μL of the TK-substrate-biotin/ATP solution to the 384 reaction plate, centrifuge for 30 seconds (1000 rpm), and incubate at 25° C. for 40 minutes.
(3) Use HTRF detection buffer to prepare 2×Sa-XL 665 (125 nM) and 1×TK-antibody-Cryptate. Add 5 μL of a mixture of Sa-XL 665 and TK-antibody-Cryptate solutions to each well, centrifuge for 30 seconds (1000 rpm), and react at room temperature for 1 hour.
(4) The fluorescence signal is read using a Biotek multi-function plate reader, and the IC50 (half inhibitory concentration) of the compound is obtained using a four-coefficient nonlinear fitting formula.

MV-4-11 cells = assay: Detection of MV-4-11 cell activity (CellTiter-Glo); type: cell-based; settings: Homo sapiens, MV4-11, 120 h, 5 days, CTG, read-out: IC50, inhibitory effects on MV-4-11 cell activity
Description: The CellTiter-Glo (CTG) luminescence method was used to detect the effect of compounds on the activity of MV-4-11 cells.
Tested compounds: compound prepared in the Examples of the present invention.
Add 100 μL containing 20,000 MV-4-11 (human myeloid monocytic leukemia cells, from the Cell Bank of the Chinese Academy of Sciences, Cat. No. SCSP-5031) cell suspension to 96-well flat-bottom clear-bottomed cell plates (Corning, Cat #3603), and then add 100 μL of cell culture medium containing a series of concentrations of the compound to be tested, with a total volume of 200 μL per well. The final gradient concentrations of the compounds were 500 nM, 125 nM, 31.25 nM, 7.813 nM, 1.953 nM, 0.488 nM, 0.122 nM, 0.031 nM, and 0.008 nM, and the final DMSO content was 0.5%. Set cells with the cell culture medium containing 0.5% DMSO but without compounds as the 100% control; set the culture medium wells without cells as 0% background control. Incubate the cell plate in a humidified incubator at 37° C. and 5% CO2 for 5 days. After 5 days, take out the cell plate, centrifuge (1000 rpm) for 5 minutes, remove and discard 100 μL supernatant, add 100 μL CTG reagent (Promega, Cat #G7572) to each well, shake at room temperature for 10 minutes to promote cell lysis, and incubate at room temperature for 30 minutes to stabilize the luminescence signal. Use a microplate reader (Molecular Device, i3X) to read the Luminescent fluorescence value, use GraphPad Prism 5.0 software to analyze the original data, use nonlinear S-curve regression to fit the data to obtain the dose-effect curve (cell survival rate %), and calculate the IC50 value.

Row | Structure (SMILES) | activity at 1 µM (Human Jurkat-E6-1 cells) [%] | IC50 (KDR) [nM] | IC50 (MV-4-11 cells) [nM]
1 | CN1CCN(c2ncc3cc2OCCCOc2cccc(F)c2-c2cc4c-3n[nH]c4cn2)CC1 [Compound 3, 16-fluoro-5-(4-methylpiperazin-1-yl)-7,11-dioxa-4,19,22,23-tetraazapentacyclo[16.5.2.1^2,6.0^12,17.0^21,24]hexacosa-1(23),2(26),3,5,12,14,16,18,20,24-decaene] | 823 | 5 to 50 | 32
2 | CN1CCN(c2ccc3cc2OCCCOc2cccc(F)c2-c2cc4c-3n[nH]c4cn2)CC1 [Compound 6, 16-fluoro-5-(4-methylpiperazin-1-yl)-7,11-dioxa-19,22,23-triazapentacyclo[16.5.2.1^2,6.0^12,17.0^21,24]hexacosa-1(23),2(26),3,5,12,14,16,18,20,24-decaene] | 542 | ≤ 5 | 3.8
3 | CN1CCN(c2ccc3cc2OCCOCc2cccc(F)c2-c2cc4c-3n[nH]c4cn2)CC1 [Compound 9, 16-fluoro-5-(4-methylpiperazin-1-yl)-7,10-dioxa-19,22,23-triazapentacyclo[16.5.2.1^2,6.0^12,17.0^21,24]hexacosa-1(23),2(26),3,5,12,14,16,18,20,24-decaene] | 568 | ≤ 5 | 7
